In patent US7547710B2, “Fused heterocyclic compounds as peptidase inhibitors” (Takeda Pharmaceutical Company Limited, priority 2002, dated 2009) one finds melting point and IC50 data, which are given here for 10 compounds.

Data set [1] addresses T1, Caco-2-derived dipeptidyl peptidase IV (Homo sapiens, UniProt P27487).
T1 construct: A dipeptidyl peptidase IV crude enzyme solution was prepared from cultured Caco-2 (ATCC HTB-37) cells; endogenous in cells; host or cells: Caco-2 (ATCC HTB-37); Triton X-100 extract, Sephadex G-200 fractions
Put plainly: Determination of Caco-2-derived dipeptidyl peptidase IV inhibitory activity. The data set is classed as biochemical. The settings on record: Caco-2 crude enzyme solution, substrate Gly-Pro-p-NA, 37° C., absorbance 405 nm after 0 hr. and 3 hrs. The protocol:
The enzyme activity of dipeptidyl peptidase IV present in human colonic adenocarcinoma-derived cell line Caco-2 cell membrane has been already reported by Yong S. Chung et al. (Cancer Research, vol. 45, pp. 2976-2982, 1985).
A dipeptidyl peptidase IV crude enzyme solution was prepared from cultured Caco-2 (ATCC HTB-37) cells. The Caco-2 cells were cultured in D-MEM medium (manufactured by Nissui Pharmaceutical Co., Ltd.) containing 10% FBS (fetal bovine serum (manufactured by GIBCO)). […]
An N,N-dimethylformamide solution (5 μl) containing the test compound was added to a mixture of water (25 μl), 1M Tris-hydrochloride buffer (10 μl, pH 7.5) and 1 mM aqueous glycylprolyl-p-nitroanilide (Gly-Pro-p-NA; manufactured by Backem AG) solution (50 μl) to prepare a mixed solution. […] The absorbance after 0 hr. and 3 hrs. was measured using a microplate reader (Multiskan Bichromatic; manufactured by Labsystems) at a wavelength of 405 nm and an increase (ΔODs) was determined. At the same time, an increase (ΔODc) in absorbance of the reaction mixture without the test compound, and an increase (ΔODb) in absorbance of the reaction mixture without the test compound and the enzyme were determined and percent inhibition of dipeptidyl peptidase IV enzyme activity was calculated from the following formula: {1−[(ΔODs−ΔODb)/(ΔODc−ΔODb)]}×100 […]

The target in data set [2] is T2, dipeptidyl peptidase IV in rat plasma (Rattus norvegicus, UniProt P14740).
T2 construct: from tissue; host or cells: SD rat blood plasma
T2 sequence (P14740 37-767 limits assumed): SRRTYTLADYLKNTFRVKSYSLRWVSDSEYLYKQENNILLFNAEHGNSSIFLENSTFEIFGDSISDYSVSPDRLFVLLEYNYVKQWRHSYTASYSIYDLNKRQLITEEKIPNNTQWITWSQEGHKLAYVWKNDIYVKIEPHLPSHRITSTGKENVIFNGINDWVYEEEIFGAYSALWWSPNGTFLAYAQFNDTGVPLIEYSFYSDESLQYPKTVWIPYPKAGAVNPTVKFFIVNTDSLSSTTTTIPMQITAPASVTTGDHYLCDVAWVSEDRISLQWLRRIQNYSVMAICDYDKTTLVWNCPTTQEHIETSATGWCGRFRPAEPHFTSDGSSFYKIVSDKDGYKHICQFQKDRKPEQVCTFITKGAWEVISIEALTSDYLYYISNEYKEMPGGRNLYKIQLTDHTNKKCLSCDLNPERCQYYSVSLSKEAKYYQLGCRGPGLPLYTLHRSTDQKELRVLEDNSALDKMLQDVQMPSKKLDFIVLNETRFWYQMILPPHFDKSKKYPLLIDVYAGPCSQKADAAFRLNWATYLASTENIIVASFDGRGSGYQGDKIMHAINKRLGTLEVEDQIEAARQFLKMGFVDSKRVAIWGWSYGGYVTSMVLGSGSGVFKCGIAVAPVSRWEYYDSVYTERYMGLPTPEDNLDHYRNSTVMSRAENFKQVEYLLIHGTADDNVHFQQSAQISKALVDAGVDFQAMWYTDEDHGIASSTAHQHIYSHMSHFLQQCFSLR
Put plainly: Determination of dipeptidyl peptidase IV inhibitory activity in rat plasma. The format is biochemical. To be noted: SD rat plasma, substrate Gly-Pro-p-NA, 30° C., absorbance 405 nm after 0 hr. and 1 hr. The protocol: The reaction was carried out according to the method of Raymond et al. (Diabetes, vol. 47, pp. 1253-1258, 1998) using a 96 well flat-bottomed plate at 30° C. An N,N-dimethylformamide solution (1 μl) containing the test compound was added to a mixture of water (69 μl), 1 M Tris-hydrochloride buffer (10 μl, pH 7.5) and 1 mM aqueous Gly-Pro-p-NA solution (100 μl) to prepare a mixed solution. Plasma (20 μl) prepared from blood of SD rat by a conventional method was added to the above-mentioned mixed solution and the enzyme reaction was started at 30° C. The absorbance after 0 hr. and 1 hr. was measured using a microplate reader at a wavelength of 405 nm and an increase (ΔODs) was determined. At the same time, an increase (ΔODc) in absorbance of the reaction mixture without the test compound, and an increase (ΔODb) in absorbance of the reaction mixture without the test compound and the enzyme were determined and percent inhibition of dipeptidyl peptidase IV enzyme activity was calculated from the following formula: {1−[(ΔODs−ΔODb)/(ΔODc−ΔODb)]}×100
The dipeptidyl peptidase IV inhibitory activity of the test compound group is expressed in IC50 value (μM) and shown in Table 2.

T1 sequence (P27487 whole entry): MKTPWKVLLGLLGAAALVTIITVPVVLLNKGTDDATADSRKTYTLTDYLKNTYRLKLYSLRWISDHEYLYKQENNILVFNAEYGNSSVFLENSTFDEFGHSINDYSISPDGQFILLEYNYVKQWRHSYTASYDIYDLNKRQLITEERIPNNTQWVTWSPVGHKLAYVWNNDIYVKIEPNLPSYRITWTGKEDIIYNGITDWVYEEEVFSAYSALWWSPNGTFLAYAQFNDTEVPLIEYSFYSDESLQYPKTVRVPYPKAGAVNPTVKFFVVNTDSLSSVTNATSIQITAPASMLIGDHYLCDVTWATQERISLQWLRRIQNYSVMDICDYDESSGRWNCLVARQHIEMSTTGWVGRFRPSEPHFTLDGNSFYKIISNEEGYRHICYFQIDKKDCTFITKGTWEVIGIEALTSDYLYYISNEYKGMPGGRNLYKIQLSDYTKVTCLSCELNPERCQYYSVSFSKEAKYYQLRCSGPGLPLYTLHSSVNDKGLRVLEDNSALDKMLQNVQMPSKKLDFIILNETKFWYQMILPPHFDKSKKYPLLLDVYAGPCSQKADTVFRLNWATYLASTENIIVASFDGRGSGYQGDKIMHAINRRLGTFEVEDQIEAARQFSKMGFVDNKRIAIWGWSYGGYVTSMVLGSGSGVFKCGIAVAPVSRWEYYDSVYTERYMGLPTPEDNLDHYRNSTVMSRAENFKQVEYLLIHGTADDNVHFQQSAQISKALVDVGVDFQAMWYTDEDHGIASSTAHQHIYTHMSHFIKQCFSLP

Usually melting point stands for the temperature of the solid-liquid transition. In turn, `COc1ccc2nc(CC(C)C)c(CN)c(-c3ccccc3)c2c1` [Example 25, (2-isobutyl-6-methoxy-4-phenylquinolin-3-yl)methylamine] came in with a melting point of 73 to 76 °C.
Same read-out and setting: the figure for `CC(C)(C)Cc1nc2ccc(OCC(N)=O)cc2c(-c2ccccc2)c1CN` [Example 40, 2-{[3-(aminomethyl)-2-(2,2-dimethylpropyl)-4-phenylquinolin-6-yl]oxy}acetamide] is 152 to 154 °C; for `CC(C)Cc1nc2ccc(Br)cc2c(-c2ccccc2)c1CN` [Example 2, (6-bromo-2-isobutyl-4-phenylquinolin-3-yl)methylamine] it is 129 to 130 °C; for `CC(C)Cc1nc2ccc(C#N)cc2c(-c2ccccc2)c1CN` [Example 3, 3-(aminomethyl)-2-isobutyl-4-phenylquinoline-6-carbonitrile] it is 128 to 130 °C.
On the same count and under the same terms, the figure for `CC(C)Cc1nc2ccc(OCC(N)=O)cc2c(-c2cccs2)c1CN` [Example 33, 2-{[3-(aminomethyl)-2-isobutyl-4-thien-2-ylquinolin-6-yl]oxy}acetamide] is 156 to 157 °C; for `CC(C)Cc1nc2ccc(OCC(N)=O)cc2c(-c2cccc(F)c2)c1CN` [Example 38, 2-{[3-(aminomethyl)-4-(3-fluorophenyl)-2-isobutylquinolin-6-yl]oxy}acetamide] it is 106 to 109 °C; for `COC(=O)c1ccc2nc(CC(C)C)c(CN)c(-c3ccccc3F)c2c1` [Example 29, Methyl 3-(aminomethyl)-4-(2-fluorophenyl)-2-isobutylquinoline-6-carboxylate] it is 138 to 139 °C.
The IC50 is the point on the concentration scale where inhibition reaches its midpoint. Low values mean inhibition by little substance, high ones a need for much substance. Compound `CC(C)Cc1nc2ccc(Cl)cc2c(-c2ccccc2)c1CN` [Example 1, (6-chloro-2-isobutyl-4-phenylquinolin-3-yl)methylamine] yielded a melting point of 114 to 116 °C. In data set [1], the IC50 came out at 710 nM. For the same compound, the IC50 in data set [2] came to 1600 nM.
The compound `Cc1ccc(-c2c(CN)c(CC(C)C)nc3ccc(OCc4ccccc4)cc23)cc1` [Example 30, [6-(benzyloxy)-2-isobutyl-4-(4-methylphenyl)quinolin-3-yl]methylamine] returned a melting point of 119 to 120 °C.
Still for that read-out and setting: the figure for `NCc1c(CC2CCCC2)nc2ccc(OCC(N)=O)cc2c1-c1ccccc1` [Example 42, 2-{[3-(aminomethyl)-2-(cyclopentylmethyl)-4-phenylquinolin-6-yl]oxy}acetamide] is 159 to 160 °C.
